Tests used:
[1] = target: Phenylalanine--tRNA ligase (Escherichia coli); assay: Compound was evaluated for the inhibitory activity against Escherichia coli phenylalanyl-tRNA synthetase
[2] = target: Phenylalanine--tRNA ligase (Staphylococcus aureus); assay: Compound was evaluated for the inhibitory activity against Staphylococcus aureus phenylalanyl-tRNA synthetase

SMILES: O=C(Nc1ccc(Cl)c(Cl)c1)[C@H]1[C@@H](C(=O)O)C2(O[C@H]1c1ccccc1)C(=O)c1ccccc1C2=O [4-(3,4-dichlorophenylcarbamoyl)-1',3'-dioxo-5-phenylspiro[tetrahydrofuran-2,2'-(2',3'-dihydro-1'H-indene)]-3-carboxylic acid]
- IC50 [1]: 11 µM
- IC50 [2]: 33 µM

— BindingDB's records for doi:10.1016/j.bmcl.2003.11.082 (Cubist Pharmaceuticals, 2004)
